{"source": "paper PMC4658182", "about": "“The Synthetic Antimicrobial Peptide 19-2.5 Interacts with Heparanase and Heparan Sulfate in Murine and Human Sepsis” (PLoS ONE, 2015)", "key": {"heparanase [1]": {"system": "heparanase", "test": "Isothermal titration calorimetry, binding to heparanase", "details": "ITC, 37°C", "procedure": "(§1) Isothermal titration calorimetry (ITC) experiments were performed as previously described. Briefly, the binding of peptide 19–2.5 to heparanase or HS-fragments was recorded by measuring the enthalpy change of the reaction at 37°C. For this, a total of 100 μg/ml heparanase (R&D Systems Europe Ltd., Abingdon, United Kingdom) and 200 μg/ml HS-fragments (H7640 Sigma-Aldrich, St. Louis, MO, USA) were dispersed into the calorimetric cell, and 2 mM peptide 19–2.5 was titrated to this dispersion stepwise in 3 μl portions. After exploring experiments, the concentration of HS was 100 μg/ml titrated with 1.5 μl of peptide 19–2.5 (2 mM) 20 times at 37°C.\n(§2) Fig 5 Isothermal titration calorimetry (ITC). For the ITC experiments, 2 mM peptide 19–2.5 was titrated to this dispersion stepwise in 3 μl portions into (A) 200 μg/ml heparan sulfate-fragments (HS) and (B) 100 μg/ml heparanase (Hep). In each titration, the resulting heat signals P were recorded (peak downwards are exothermic, peaks upwards endothermic reactions) against time (min) and presented in the top parts of Fig 5A and 5B. The integrated enthalpy changes ΔH versus [peptide]:[HS-fragments] (A) and [peptide]:[heparanase] (B) concentration ratios of the single titrations are illustrated in the bottom parts of Fig 5A and 5B."}, "[2]": {"system": "Gram-negative and Gram-positive bacteria as well as against viruses", "details": "cited from earlier work", "excerpt": "(§3) The synthetic antimicrobial peptide 19–2.5 belongs to the class of synthetic anti-lipopolysaccharide peptides (SALP = synthetic anti-LPS peptides). […] We recently reported that peptide 19–2.5 is able to decrease the inflammatory response in murine cells stimulated with both PAM ..."}, "mice": {"system": "mice", "details": "cited from earlier work", "excerpt": "as §3"}, "heparanase [3]": {"system": "heparanase", "test": "Relative heparanase mRNA expression in organs (qPCR), CLP septic mice", "assay_type": "in vivo, murine", "details": "24 h after CLP", "procedure": "The murine model of polymicrobial sepsis was divided into three steps as described before. Briefly, in a first step 12 NMRI mice underwent a catheterization procedure under general (isoflurane 1% to 2% in oxygen/air mix with a FiO2 of 0.3) and local (0.2 ml lidocaine 2%) anesthesia. A central vein catheter (PE-tube, self-made) was implanted in the jugular vein. After further local infiltration with lidocaine, the neck was closed by single suture. To prevent hypothermia all animals were kept on a heating pad throughout the surgical procedure. Mice were transferred back into the cage to rest for 48h. The i.v.-line was connected to the syringe pump at a rate of 100 μl/h (NaCl 0.9%).\nIn a second step, general and local anesthesia for cecal ligature and puncture (CLP) was performed as described above. The animal were transferred to the cage and reconnected with the i.v.-line. Depending on the group, peptide 19–2.5 infusion (20 μg/ml, 100 μl/h) or NaCl 0.9% infusion (100 μl/h) was started.\nFinally, in a third step all animals were killed 24 h after CLP. Therefore, the animals were anesthetized as described above, brought to a prone position and the abdomen and thorax were opened. Blood was sampled in pre-citrated syringes. Directly after killing the animal under general anesthesia by cervical dislocation heart, liver, lung, kidney and spleen were snap-frozen in liquid […] until further procedures.\nAs described before, total RNA was extracted from snap-frozen tissue (RNeasy Mini Kit, Qiagen, Hilden, Germany) and reverse transcribed to cDNA (Quanti Tec, Rev Transcription Kit, Qiagen, Hilden, Germany). cDNA was analyzed by quantitative real-time PCR performed with Power SYBR Green PCR Master Mix on a StepOnePlus (all Applied Biosystems, Foster City, CA, USA) using a mouse specific primer (biomers, Ulm, Germany) for heparanase 5’-[…]-3’ (for) and 5’-[…]-3’ (rev). Beta-actin was used as an endogenous normalization control: 5’-[…]-3’ (for), 5’-CGG ATGTCAACGTCACACTT-3’ (rev). […]\nAll data are given as mean ± standard deviation (SD). As described recently, the PCR-derived mRNA expressions were analyzed using a relative expression software tool (REST, (http://www.gene-quantification.de/rest.html, rest-mcs-beta-9august 2006) performing a randomization test. This tool avoids assumptions on distributions and applies a pair wise fixed reallocation randomization test, which reallocates control and sample groups (= pair wise fixed reallocation). The expression ratios are calculated on the basis of the mean crossing point (CP) values for reference and target genes. We used a multiple t-test with Holm-Šídák correction when comparing differences between groups. […]"}, "[4]": {"test": "Isothermal titration calorimetry, binding to HS-fragments", "details": "ITC; for Ka binding constant / Kd / N stoichiometry of binding / ΔG Gibbs free energy / ΔS entropy change: 2 mM peptide titrated 20 times 1.5 μl into 100 μg/ml HS", "procedure": "as §1, §2"}, "[5]": {"system": "pro-inflammatory cytokines; CD14", "details": "CLP-mice, cited from earlier work", "excerpt": "Several studies report an up to 10-fold increase of heparanase expression after stimulation with pro-inflammatory cytokines. […] Accordingly, we detected organ-specific differences of heparanase levels that m ..."}, "[6]": {"details": "2 mM peptide in 3 μl portions into 100 μg/ml heparanase, Fig 5B"}, "[7]": {"details": "heparanase (Fig 5B) compared with HS-fragments (Fig 5A)"}, "[8]": {"details": "37°C, 2 mM peptide in 3 μl portions into 200 μg/ml HS-fragments, Fig 5A"}}, "note": "Like-named read-outs stand apart in the source and are kept apart here."}
{"substance": "peptide 19–2.5: synthetic antimicrobial peptide 19–2.5 belongs to the class of synthetic anti-lipopolysaccharide peptides (SALP = synthetic anti-LPS peptides)", "values": [{"measurement": "enthalpy change (ΔH) at the beginning of the titration", "setting": "heparanase [1]; [6]", "value": "approximately −25 kJ/mol"}, {"measurement": "heat of reaction on titration to heparanase", "setting": "heparanase [1]; [6]", "value": "exothermic reaction"}, {"measurement": "ΔH value at high peptide concentrations", "setting": "heparanase [1]; [6]", "value": "around 12 kJ/mole"}, {"measurement": "binding constant for heparanase", "setting": "heparanase [1]; 2 mM peptide into 100 μg/ml heparanase, Fig 5B", "value": "does not allow calculating a binding constant"}, {"measurement": "saturation character of ΔH values", "setting": "heparanase [1]; 2 mM peptide into 100 μg/ml heparanase, no sigmoidal curve, Fig 5B", "value": "do not have a saturation character"}, {"measurement": "peptide concentrations at which the processes take place vs HS-fragments", "setting": "heparanase [1]; [7]", "value": "orders of magnitude higher than those for the interaction with HS-fragments"}, {"measurement": "ΔH values at the beginning of the titration vs HS-fragments", "setting": "heparanase [1]; [7]", "value": "much lower than those for the HS-fragments titration"}, {"measurement": "anti-inflammatory activity", "setting": "[2]", "value": "shows anti-inflammatory activity against Gram-negative and Gram-positive bacteria as well as against viruses"}, {"measurement": "protection from lethal septic shock", "setting": "mice", "value": "protects mice from lethal septic shock"}, {"measurement": "heparanase mRNA expression under peptide treatment", "setting": "heparanase [3]; all investigated organ tissues (heart, liver, lung, kidney, spleen), CLP-mice, 20 μg/ml, 100 μl/h i.v., Fig 2", "value": "decreased heparanase mRNA expression in all investigated organ tissues"}, {"measurement": "relative heparanase mRNA expression, untreated CLP-mice vs peptide-treated", "setting": "heparanase [3]; kidney, increase in untreated CLP-mice vs peptide 19–2.5 (20 μg/ml, 100 μl/h i.v., n = 6 per group), normalized to ß-actin, mean ± SD, Fig 2E", "value": "5.7±1.9", "unit": "fold"}, {"measurement": "relative heparanase mRNA expression, untreated CLP-mice vs peptide-treated", "setting": "heparanase [3]; lung, liver, spleen, heart and kidney, result in words, 20 μg/ml, 100 μl/h i.v., n = 6 per group, Fig 2A–2E, **p < 0.01, ***p < 0.0001", "value": "significantly higher in untreated CLP-mice compared to mice treated with peptide 19–2.5"}, {"measurement": "relative heparanase mRNA expression, untreated CLP-mice vs peptide-treated", "setting": "heparanase [3]; lung, increase in untreated CLP-mice vs peptide 19–2.5 (20 μg/ml, 100 μl/h i.v., n = 6 per group), normalized to ß-actin, mean ± SD, Fig 2A", "value": "2.2±2.2", "unit": "fold"}, {"measurement": "[Peptide 19–2.5]:[HS] weight ratio at saturation", "setting": "[4]; [8]", "value": "~0.6"}, {"measurement": "heat of reaction on titration to HS-fragments", "setting": "[4]; [8]", "value": "high exothermic reaction"}, {"measurement": "Ka binding constant", "setting": "[4]; 37°C, experiment 1", "value": "1.93e+06", "unit": "M⁻¹"}, {"measurement": "Kd", "setting": "[4]; 37°C, experiment 1", "value": 518, "unit": "nM"}, {"measurement": "N stoichiometry of binding", "setting": "[4]; 37°C, experiment 1", "value": 0.511, "unit": "w/w ratio"}, {"measurement": "ΔG Gibbs free energy", "setting": "[4]; 37°C, experiment 1", "value": -8.918, "unit": "kcal/mol"}, {"measurement": "ΔS entropy change", "setting": "[4]; 37°C, experiment 1", "value": 4.46, "unit": "cal/mol/K"}, {"measurement": "Ka binding constant", "setting": "[4]; 37°C, experiment 2", "value": "1.52e+07", "unit": "M⁻¹"}, {"measurement": "Kd", "setting": "[4]; 37°C, experiment 2", "value": 65.7, "unit": "nM"}, {"measurement": "N stoichiometry of binding", "setting": "[4]; 37°C, experiment 2", "value": 0.475, "unit": "w/w ratio"}, {"measurement": "ΔG Gibbs free energy", "setting": "[4]; 37°C, experiment 2", "value": -10.192, "unit": "kcal/mol"}, {"measurement": "ΔS entropy change", "setting": "[4]; 37°C, experiment 2", "value": 6.42, "unit": "cal/mol/K"}, {"measurement": "Ka binding constant", "setting": "[4]; 37°C, experiment 3", "value": "1.55e+07", "unit": "M⁻¹"}, {"measurement": "Kd", "setting": "[4]; 37°C, experiment 3", "value": 64.5, "unit": "nM"}, {"measurement": "N stoichiometry of binding", "setting": "[4]; 37°C, experiment 3", "value": 0.547, "unit": "w/w ratio"}, {"measurement": "ΔG Gibbs free energy", "setting": "[4]; 37°C, experiment 3", "value": -10.201, "unit": "kcal/mol"}, {"measurement": "ΔS entropy change", "setting": "[4]; 37°C, experiment 3", "value": 10.8, "unit": "cal/mol/K"}, {"measurement": "Ka binding constant", "setting": "[4]; 37°C, experiment 4", "value": "1.2e+07", "unit": "M⁻¹"}, {"measurement": "Kd", "setting": "[4]; 37°C, experiment 4", "value": 83.3, "unit": "nM"}, {"measurement": "N stoichiometry of binding", "setting": "[4]; 37°C, experiment 4", "value": 0.534, "unit": "w/w ratio"}, {"measurement": "ΔG Gibbs free energy", "setting": "[4]; 37°C, experiment 4", "value": -10.046, "unit": "kcal/mol"}, {"measurement": "ΔS entropy change", "setting": "[4]; 37°C, experiment 4", "value": 6.77, "unit": "cal/mol/K"}, {"measurement": "Ka binding constant", "setting": "[4]; 37°C, mean of n = 4", "value": "1.12e+07", "unit": "M⁻¹"}, {"measurement": "N stoichiometry of binding", "setting": "[4]; 37°C, mean of n = 4", "value": 0.520, "unit": "w/w ratio"}, {"measurement": "ΔG Gibbs free energy", "setting": "[4]; 37°C, mean of n = 4", "value": -9.839, "unit": "kcal/mol"}, {"measurement": "ΔS entropy change", "setting": "[4]; 37°C, mean of n = 4", "value": 7.11, "unit": "cal/mol/K"}, {"measurement": "Kd", "setting": "[4]; 37°C, mean of n = 4, read-out: Kd", "value": 89.2, "unit": "nM"}, {"measurement": "titration curve shape with HS-fragments", "setting": "[4]; Fig 5A", "value": "S-shaped curve with saturation characteristic for a complex formation"}, {"measurement": "mRNA expression of CD14", "setting": "[5]; differences between organs", "value": "decreases mRNA expression of CD14"}, {"measurement": "levels of pro-inflammatory cytokines", "setting": "[5]", "value": "decreases levels of pro-inflammatory cytokines in CLP-mice"}]}
